Laboratory results as given in ChEMBL document CHEMBL2311358, “Inhibitors of HIV-1 attachment. Part 7: indole-7-carboxamides as potent and orally bioavailable antiviral agents” (Bioorg Med Chem Lett, 2013).
Converted amounts (≈) assume the structure as drawn.

Key:
[1] = tested on: Human immunodeficiency virus 1; test: Antiviral activity against HIV1 JRFL infected in human HeLa cells expressing CD4 and CCR5 assessed as inhibition of single-cycle viral replication by luciferase reporter gene assay; assay type: functional, organism-based; conditions: Human immunodeficiency virus 1, JRFL
[2] = Permeability across human Caco2 cells at pH 6.5; assay type: ADME, cell-based; conditions: Caco-2, pH 6.5, read-out: permeability
[3] = Half life in human liver microsomes; assay type: ADME, Microsome
[4] = Cytotoxicity against human HeLa cells expressing CD4 assessed as cell viability after 6 days by XTT assay; assay type: cell-based
[5] = Aqueous solubility of the compound in crystalline form at pH 6.5; assay type: physicochemical
[6] = Clearance in rat at 1 mg/kg, iv; assay type: ADME, organism-based; design: dose 1 mg/kg, route intravenous; conditions: in vivo
[7] = AUC in rat at 1 mg/kg, iv and 5 mg/kg, po; assay type: ADME, organism-based; conditions: plasma
[8] = tested on: Hepatocyte; test: Cytotoxicity against human hepatocytes expressing CYP3A4, CYP2C9, CYP2C19, CYP2D6; assay type: ADME, cell-based
[9] = Cmax in rat at 1 mg/kg, iv and 5 mg/kg, po; assay type: ADME, organism-based; conditions: in vivo
[10] = Cmax in dog at 1 mg/kg, iv and 2.5 mg/kg, po; assay type: ADME, organism-based, Canis lupus familiaris; conditions: in vivo
[11] = Inhibition of CYP450 (unknown origin); assay type: ADME, Homo sapiens
[12] = Half life in monkey at 1 mg/kg, iv; assay type: ADME, organism-based, Macaca mulatta; design: dose 1 mg/kg, route intravenous; conditions: rhesus monkey, in vivo
[13] = Plasma protein binding in human; assay type: ADME, cell-free; conditions: read-out: PPB (converted)
[14] = Solubility of the compound in amorphous form in PEG 400 at pH 6.5; assay type: physicochemical; conditions: PEG 400, pH 6.5
[15] = Cmax in monkey at 1 mg/kg, iv and 2.5 mg/kg, po; assay type: ADME, organism-based, Macaca mulatta; conditions: rhesus monkey, in vivo
[16] = Half life in dog at 1 mg/kg, iv; assay type: ADME, organism-based, Canis lupus familiaris; design: dose 1 mg/kg, route intravenous; conditions: in vivo
[17] = Oral bioavailability in rat at 5 mg/kg; assay type: ADME, organism-based; conditions: in vivo
[18] = Oral bioavailability in dog at 2.5 mg/kg; assay type: ADME, organism-based, Canis lupus familiaris; conditions: in vivo
[19] = AUC in monkey at 1 mg/kg, iv and 2.5 mg/kg, po; assay type: ADME, organism-based, Macaca mulatta; conditions: rhesus monkey, plasma
[20] = Oral bioavailability in monkey at 2.5 mg/kg; assay type: ADME, organism-based, Macaca mulatta; conditions: rhesus monkey, in vivo
[21] = AUC in dog at 1 mg/kg, iv and 2.5 mg/kg, po; assay type: ADME, organism-based, Canis lupus familiaris; conditions: plasma
[22] = Half life in rat at 1 mg/kg, iv; assay type: ADME, organism-based; design: dose 1 mg/kg, route intravenous; conditions: in vivo

Compound	EC50 [1] [nM]	CC50 at 144 h [4] [nM]	also measured
O=C(NCc1nc2ccccc2[nH]1)c1ccc(F)c2c(C(=O)C(=O)N3CCN(C(=O)c4ccccc4)CC3)c[nH]c12	6.73	> 300000	
O=C(C(=O)N1CCN(C(=O)c2ccccc2)CC1)c1c[nH]c2cccc(F)c12	1.24	> 300000	solubility ([5]; buffer): 0.005 µg/mL (≈ 0.0132 µM); Papp [2]: 10 ×10⁻⁶ cm/s; clearance [6]: 48 mL/min/kg; half-life [3]: > 1.67 h
O=C(NCCN1CCOCC1)c1ccc(F)c2c(C(=O)C(=O)N3CCN(C(=O)c4ccccc4)CC3)c[nH]c12	7.95	> 300000	
O=C(NCc1ccccc1)c1ccc(F)c2c(C(=O)C(=O)N3CCN(C(=O)c4ccccc4)CC3)c[nH]c12	109	> 300000	
CNC(=O)c1ccc(F)c2c(C(=O)C(=O)N3CCN(C(=O)c4ccccc4)C[C@H]3C)c[nH]c12	0.75	> 300000	
CC(=O)N1CC(NC(=O)c2ccc(F)c3c(C(=O)C(=O)N4CCN(C(=O)c5ccccc5)CC4)c[nH]c23)C1	11.2	> 300000	
C[C@@H]1CN(C(=O)c2ccccc2)CCN1C(=O)C(=O)c1c[nH]c2c(C(N)=O)ccc(F)c12	0.14	141000	Papp [2]: 5.1 ×10⁻⁶ cm/s; half-life [3]: 0.417 h
COc1ccc(C(N)=O)c2[nH]cc(C(=O)C(=O)N3CCN(C(=O)c4ccccc4)CC3)c12	0.76	244000	
O=C(NCc1ccco1)c1ccc(F)c2c(C(=O)C(=O)N3CCN(C(=O)c4ccccc4)CC3)c[nH]c12	1.3	71000	
C[C@@H]1CN(C(=O)c2ccccn2)CCN1C(=O)C(=O)c1c[nH]c2c(C(N)=O)ccc(F)c12	1.42	> 300000	
NC(=O)c1ccc(F)c2c(C(=O)C(=O)N3CCN(C(=O)c4ccccn4)CC3)c[nH]c12	7.59	> 300000	
O=C(NS(=O)(=O)c1ccccc1)c1ccc(F)c2c(C(=O)C(=O)N3CCN(C(=O)c4ccccc4)CC3)c[nH]c12	0.29	> 300000	Papp [2]: 1.5 ×10⁻⁶ cm/s; half-life [3]: > 1.67 h; bioavailability [17]: < 2%
CNC(=O)c1ccc(OC)c2c(C(=O)C(=O)N3CCN(C(=O)c4ccccc4)CC3)c[nH]c12	0.76	> 300000	Papp [2]: 3.9 ×10⁻⁶ cm/s; half-life [3]: 0.667 h
O=C(NCCc1cc2ccccc2[nH]1)c1ccc(F)c2c(C(=O)C(=O)N3CCN(C(=O)c4ccccc4)CC3)c[nH]c12	1.08	> 300000	
COc1ncc(OC)c2c(C(=O)C(=O)N3CCN(C(=O)c4ccccc4)CC3)c[nH]c12	0.75	> 300000	
CN(C)CCNC(=O)c1ccc(F)c2c(C(=O)C(=O)N3CCN(C(=O)c4ccccc4)CC3)c[nH]c12	316	> 300000	

Now from value to compound, other results behind:

EC50 [1] [nM]	Compound	CC50 at 144 h [4] [nM]	also measured
0.057	O=C(Nc1nccs1)c1ccc(F)c2c(C(=O)C(=O)N3CCN(C(=O)c4ccccc4)CC3)c[nH]c12	89000	Papp [2]: > 30 ×10⁻⁶ cm/s; half-life [3]: 0.0683 h
3.37	O=C(Nc1ccncc1)c1ccc(F)c2c(C(=O)C(=O)N3CCN(C(=O)c4ccccc4)CC3)c[nH]c12	> 300000	
0.04	O=C(Nc1nc2ccccc2[nH]1)c1ccc(F)c2c(C(=O)C(=O)N3CCN(C(=O)c4ccccc4)CC3)c[nH]c12	9200	
0.19	O=C(Nc1nncs1)c1ccc(F)c2c(C(=O)C(=O)N3CCN(C(=O)c4ccccc4)CC3)c[nH]c12	1740	
0.32	O=C(Nc1nc2ccccc2s1)c1ccc(F)c2c(C(=O)C(=O)N3CCN(C(=O)c4ccccc4)CC3)c[nH]c12	81000	
2.69	NNC(=O)c1ccc(F)c2c(C(=O)C(=O)N3CCN(C(=O)c4ccccc4)CC3)c[nH]c12	> 300000	
0.65	O=C(Nc1ccccn1)c1ccc(F)c2c(C(=O)C(=O)N3CCN(C(=O)c4ccccc4)CC3)c[nH]c12	69000	
0.52	CNC(=O)c1ccc(F)c2c(C(=O)C(=O)N3CCN(C(=O)c4ccccc4)CC3)c[nH]c12	> 300000	AUC [7]: 4620 ng·h/mL; IC50 [8]: > 57000 nM; solubility ([5]; aqueous, read-out: solubility): 33 µg/mL (≈ 75.6 µM); Cmax [9]: 843 ng/mL; Papp [2]: 11.2 ×10⁻⁶ cm/s; Cmax [10]: 1560 ng/mL; clearance [6]: 12 mL/min/kg; IC50 [11]: > 90000 nM; half-life [3]: 1.35 h; half-life [12]: 4.18 h; fraction unbound [13]: 0.011; solubility [14]: 18000 µg/mL (≈ 41200 µM); Cmax [15]: 1330 ng/mL; half-life [16]: 2.32 h; bioavailability [17]: 65%; bioavailability [18]: 93%; AUC [19]: 3430 ng·h/mL; bioavailability [20]: 70%; AUC [21]: 7030 ng·h/mL; half-life [22]: 2.18 h
2.64	CS(=O)(=O)NC(=O)c1ccc(F)c2c(C(=O)C(=O)N3CCN(C(=O)c4ccccc4)CC3)c[nH]c12	> 300000	
3.83	CONC(=O)c1ccc(F)c2c(C(=O)C(=O)N3CCN(C(=O)c4ccccc4)CC3)c[nH]c12	> 300000	
9.09	O=C(Nc1cccnc1)c1ccc(F)c2c(C(=O)C(=O)N3CCN(C(=O)c4ccccc4)CC3)c[nH]c12	132000	
18.8	COCCNC(=O)c1ccc(F)c2c(C(=O)C(=O)N3CCN(C(=O)c4ccccc4)CC3)c[nH]c12	298000	
0.4	O=C(Nc1nnn[nH]1)c1ccc(F)c2c(C(=O)C(=O)N3CCN(C(=O)c4ccccc4)CC3)c[nH]c12	> 300000	Papp [2]: < 1.5 ×10⁻⁶ cm/s; half-life [3]: > 1.67 h; bioavailability [17]: < 1%
407	CN(C)C(=O)c1ccc(F)c2c(C(=O)C(=O)N3CCN(C(=O)c4ccccc4)CC3)c[nH]c12	> 300000	
0.0058	Cc1csc(NC(=O)c2ccc(F)c3c(C(=O)C(=O)N4CCN(C(=O)c5ccccc5)CC4)c[nH]c23)n1	29000	
2.03	NC(=O)c1ccc(F)c2c(C(=O)C(=O)N3CCN(C(=O)c4ccccc4)CC3)c[nH]c12	> 300000	Papp [2]: 2.4 ×10⁻⁶ cm/s; half-life [3]: > 1.67 h; bioavailability [17]: 21%
0.21	O=C(Nc1nc(-c2ccccc2)cs1)c1ccc(F)c2c(C(=O)C(=O)N3CCN(C(=O)c4ccccc4)CC3)c[nH]c12	> 300000	
1.06	O=C(NCc1cccs1)c1ccc(F)c2c(C(=O)C(=O)N3CCN(C(=O)c4ccccc4)CC3)c[nH]c12	44000	
12.8	NCCNC(=O)c1ccc(F)c2c(C(=O)C(=O)N3CCN(C(=O)c4ccccc4)CC3)c[nH]c12	135000	
3.07	CCn1nccc1NC(=O)c1ccc(F)c2c(C(=O)C(=O)N3CCN(C(=O)c4ccccc4)CC3)c[nH]c12	166000	
0.94	Cc1cc(NC(=O)c2ccc(F)c3c(C(=O)C(=O)N4CCN(C(=O)c5ccccc5)CC4)c[nH]c23)on1	> 300000	
0.02	O=C(NC1=NCCS1)c1ccc(F)c2c(C(=O)C(=O)N3CCN(C(=O)c4ccccc4)CC3)c[nH]c12	> 300000	
